Data on nine molecules can be found in patent publication US8445677B2, “Substituted pyrimidyl guanidine derivatives having anticancer activity” (University of Southern California, priority 2008, dated 2013).

Test [1] deals with panel of cancer cell lines. The test is described as follows: MTT cytotoxicity, panel of cancer cell lines (Example 2). Type of test: cell-based. An excerpt: (§1) Human breast cancer cell lines MDA-MB-435 and SkBr-3 were purchased from the American Type Culture Collection (Manassas, Va.). The HCT116 P53+/+ and HCT116 P53−/− cell lines were kindly provided by Dr. Bert Vogelstein (Johns Hopkins Medical Institutions, Baltimore, Md.). The HEY human ovarian carcinoma cell line was kindly provided by Dr. Louis Dubeau (University of Southern California Norris Cancer Center). Cells were maintained as monolayer cultures in media supplemented with 10% fetal bovine serum (Gemini-Bioproducts, Woodland, Calif.) and 2 mmo/lL-glutamine at 37° C. in a humidified atmosphere of 5% C02. To remove the adherent cells from the flask for passaging and counting, cells were washed with PBS without calcium or magnesium, incubated with a small volume of 0.25% trypsin-EDTA solution (Sigma-Aldrich, St. Louis, Mo.) for 5-10 min, and washed with culture medium and centrifuged. All experiments were performed using cells in exponential growth stage. Cells were routinely checked for mycoplasma contamination using a PCR-based assay (Stratagene, Cambridge, UK).
(§2) Stock solutions (10 mM) of all compounds were prepared in DMSO and stored at −20° C. Further dilutions were made fresh in cell-culture media just prior to cell treatment.
(§3) Cytotoxicity was assessed by a 3-(4,5-dimethylthiazol-2-yl)-2,5-diphenyltetrazolium bromide (MTT) assay as previously described.^23 Cells were seeded in 96-well plates and allowed to attach overnight. Cells were subsequently treated with continuous exposure to the corresponding drug for 72 h. An MTT solution (at a final concentration of 0.5 mg/ml) was added to each well, and cells were incubated for 4 h at 37° C. After removal of the medium, DMSO was added and the absorbance was read at 570 nm. All assays were performed in triplicate. The IC50 was determined for each drug from a plot of log (drug concentration) versus percentage of cells killed.

Test [2] concerns HEY. In words: MTT cytotoxicity assay (Example 2). To be noted: 72 h. Type of test: cell-based, human.
Source text: as §1, §2, §3

The subject of the next test is SkBr-3. The test is described as follows: MTT cytotoxicity assay (Example 2). In kind it is cell-based, human.
Source text: as §1, §2, §3
Background: Tetrazolium dyes change colour on reduction, which living cells bring about.

Test [3] relates to HCT116 p53+/+. The test is described as follows: MTT cytotoxicity assay (Example 2). The conditions noted are these: Homo sapiens. In kind it is cell-based.
Source text: as §1, §2, §3

Test [4] deals with HCT116 p53−/−. In words: MTT cytotoxicity assay (Example 2). In kind it is cell-based. The conditions noted are these: Homo sapiens, HCT-116, 72 h.
Source text: as §1, §2, §3

Test [5] concerns MDA-MB-435. The test is described as follows: MTT cytotoxicity assay (Example 2). To be noted: Homo sapiens, MDA-MB-435, 72 h. Type of test: cell-based.
Source text: as §1, §2, §3

Test [6] deals with HCT116 p53+/+. In words: MTT cytotoxicity assay (Example 1). To be noted: for IC50: MTT, 72 h. Type of test: cell-based. The text has this:
(§4) Human breast cancer cells MDA-MB-435 were purchased from the American Type Culture Collection (Manassas, Va.). The HCT116 p53+/+ and HCT116 p53−/− cells were kindly provided by Dr. Bert Vogelstein (Johns Hopkins Medical Institutions, Baltimore, Md.). The human ovarian carcinoma cell line (HEY) which is naturally resistant to cisplatin, was kindly provided by Dr. Louis Dubeau, University of Southern California (USC) Norris Cancer Center, and NIH3T3 normal mouse fibroblast cells were kindly provided by Dr. Michael Press from USC. HEY and NIH3T3 cells were maintained as monolayer cultures in RPMI, HCT 116 cells in McCoy1s5A media and MDA-MB 435 in DMEM. Media were purchased from (Mediatech, Virginia) and supplemented with 10% fetal bovine serum (Gemini-Bioproducts, Woodland, Calif.), 2 mM L-glutamine and 5% Penicillin/streptomycin from Bio whittaker were purchased from VWR. Cells were incubated at 37° C. in a humidified atmosphere of 5% CO2. To remove the adherent cells from the flask for passaging and counting, cells were washed with PBS without calcium or magnesium, incubated with a small volume of 0.25% trypsin-EDTA solution (Sigma-Aldrich, St. Louis, Mo.) for 5-10 min, and washed with culture medium and centrifuged. All experiments were performed using cells at exponential growth stage. Cells were routinely checked for mycoplasma contamination using a PCR-based assay (Stratagene, Tex., USA).
(§5) Stock solutions (10 mM) of all compounds were prepared in DMSO and stored at −20° C. Further dilutions were made fresh in PBS or cell-culture media right before cell treatment.
(§6) Cytotoxicity was assessed by a 3-(4,s-dimethylthiazol-2-yl)-2,5-diphenyltetrazolium bromide (MTT) assay as previously described.^24 Briefly, cells were seeded in 96-well microtiter plates and allowed to attach overnight. Cells were subsequently treated with continuous exposure to the corresponding drug for 72 h. A MTT solution (at a final concentration of 0.5 mglml) was added to each well, and cells were incubated for 4 h at 37° C. After removal of the medium, DMSO was added and the absorbance was read at 570 nm. All assays were done in triplicate. The IC50 was then determined for each drug from a plot of log (drug concentration) versus percentage of cells killed.

Test [7] concerns HCT116 p53−/−. The test is described as follows: MTT cytotoxicity assay (Example 1). The conditions noted are these: for IC50: MTT, 72 h. In kind it is cell-based.
Source text: as §4, §5, §6

For a further test, the system named is HEY cells. The test is described as follows: Colony formation assay. Type of test: cell-based, human. The conditions noted are these: several doses. As to the method:
(§7) Colony formation assays were also performed to confirm the activity of these compounds as described.^1,25 Briefly, cells were plated in 6-well plates at a density of 500 cells/well and allowed to attach. The next day, serial dilutions of the corresponding compounds were added and allowed to incubate for 24 h. After exposure, cells were washed in PBS and cultured in drug-free media until colonies were formed (8-10 days). Cells were subsequently washed, fixed with a 1% glutaraldehyde solution for 30 min, and stained with a solution of crystal violet (2%) for 30 min. After staining, cells were thoroughly washed with water. Colonies were imaged on the ChemiDoc Imaging System (Bio-Rad) and counted using the Quantity One quantitation software package (Bio-Rad). The data reported represent means of at least three independent experiments.

Another test concerns NIH3T3. The test is described as follows: MTT cytotoxicity assay (Example 1). In kind it is cell-based, mouse.
Source text: as §4, §5, §6

Another test has as its system HCT p53+/+ cells. The test is described as follows: Colony formation assay. Type of test: cell-based. To be noted: several doses. As to the method: as §7
In test [8] the test system is panel of cancer cell lines. The test is described as follows: MTT cytotoxicity, panel of cancer cell lines (Example 1). In kind it is cell-based. The conditions noted are these: other selected cells, dose up to 10.0 μM.
Source text: as §4, with “To remove the adherent cells from the flask for passaging and counting, cells were washed with PBS without calcium or magnesium, incubated with a small volume of 0.25% trypsin-EDTA solution (Sigma-Aldrich, St. Louis, Mo.) for 5-10 min, and washed with culture medium and centrifuged. All experiments were performed using cells at exponential growth stage. Cells were routinely checked for mycoplasma contamination using a PCR-based assay (Stratagene, Tex., USA).” left out
Cytotoxicity was assessed by a 3-(4,s-dimethylthiazol-2-yl)-2,5-diphenyltetrazolium bromide (MTT) assay as previously described.^24 Briefly, cells were seeded in 96-well microtiter plates and allowed to attach overnight. […] After removal of the medium, DMSO was added and the absorbance was read at 570 nm. […] The IC50 was then determined for each drug from a plot of log (drug concentration) versus percentage of cells killed.

For test [9], the system named is HEY. In words: MTT cytotoxicity assay (Example 1). Type of test: cell-based, human. To be noted: 72 h.
Source text: as §4, §5, §6

In test [10] the test system is MDA-MB-435. The test is described as follows: MTT cytotoxicity assay (Example 1). In kind it is cell-based, human. To be noted: Homo sapiens, MDA-MB-435, 72 h.
Source text: as §4, §5, §6

Where [11] appears, read: HCT-116, 72 h, MTT, 72 h, read-out: IC50 Hct116 p53+/+.

Take `Cc1cc(C)nc(NC(=N)Nc2ccc(Cl)cc2C(=O)c2ccccc2)n1` [2-SMD6-4]: the IC50 in test [1] (certain cancer cell lines) is less than 3 µM; in the test on HEY [2] (Homo sapiens), 2.5 ± 0.4 µM; in the test on SkBr-3 (Homo sapiens, SK-BR-3, 72 h), 7.4 ± 0.5 µM; with HCT116 p53+/+ [3] (setting [11]) it was 2.2 ± 0.8 µM; with HCT116 p53−/− [4], 2.1 ± 0.1 µM; in the test on MDA-MB-435 [5], greater than 10 µM.

Consider `Oc1ccc(Br)cc1/C=N/Nc1nc2nonc2nc1Nc1ccc(F)cc1` [Compound 2], for which the IC50 in the test on HCT116 p53+/+ [6] (Homo sapiens, HCT-116, 72 h) is less than 3 µM; in the test with HCT116 p53+/+ [6], 1.5 ± 1 µM; in the test with HCT116 p53−/− [7] (Homo sapiens, HCT-116, 72 h), less than 3 µM; in the test with HCT116 p53−/− [7], 1.8 ± 0.7 µM; in the test with NIH3T3 (72 h), 6 ± 1.4 µM; in the test with NIH3T3 (Mus musculus, NIH3T3, 72 h) it was 8 µM. Moreover, the “toxic effect in colony formation assay” value in the test on HEY cells and with HCT p53+/+ cells was “significant toxic effect” in each case.

For `Cc1cccc(Nc2nc3nonc3nc2NN=Cc2ccc(-c3ccccc3Cl)o2)c1C` [Compound 19], the figures for the toxicity result (in the test with HCT116 p53+/+ [6]; with HCT116 p53−/− [7]; in [8]) were “toxic”, “toxic” and “not toxic”, respectively. For the same molecule, the IC50 with HCT116 p53+/+ [6] (Homo sapiens, HCT-116, 72 h) was found to be 3 µM; with HCT116 p53+/+ [6], 2 µM; in the test on HCT116 p53−/− [7] (Homo sapiens, HCT-116, 72 h), 6 µM; in the test with HCT116 p53−/− [7], 4 µM; in the test on HEY [9], 5 µM; in the test with HEY [9] (Homo sapiens) it was 3 µM. The IC50 is greater than 10 µM with MDA-MB-435 [10] and greater than 10 µM in the test with NIH3T3 (Mus musculus, NIH3T3, 72 h).

Take `Cc1cc(C)nc(NC(=N)Nc2ccc(Cl)c(C(F)(F)F)c2)n1` [4-SMD6-8]: the IC50 was less than 3 µM in [1] (certain cancer cell lines); 2.2 ± 0.3 µM with HEY [2] (Homo sapiens); 2.5 ± 0.5 µM with SkBr-3 (Homo sapiens, SK-BR-3, 72 h); 1.6 ± 0.4 µM with HCT116 p53+/+ [3] (setting [11]); 2.1 ± 0.5 µM in the test with HCT116 p53−/− [4].

In the case of `Oc1ccc(CNc2ccc(C(F)(F)F)cc2)c2cccnc12` [18-SMD58-13], the IC50 was found to be 1.2 ± 0.1 µM in the test with HEY [2] (Homo sapiens); 2.8 ± 0.5 µM in the test on SkBr-3 (Homo sapiens, SK-BR-3, 72 h); 1.6 ± 0.1 µM with HCT116 p53+/+ [3] (setting [11]); 2 ± 0.1 µM in the test with HCT116 p53−/− [4]; 5.2 ± 0.4 µM in the test with MDA-MB-435 [5].

`CCOC(=O)C1CCN(Cc2ccc(O)c3ncccc23)CC1` [10-SMD58]: the IC50 in test [1] (five cancer cell lines) was less than 3.5 µM; in the test with HEY [2], 0.5 µM; in the test on SkBr-3 (72 h), 3.5 ± 0.5 µM; in the test with HCT116 p53+/+ [3] (HCT-116, p53+/+ cell line, read-out: IC50) it was less than 1 µM; in the test on HCT116 p53−/− [4], 0.3 µM; in the test on MDA-MB-435 [5], 2.4 ± 1.5 µM.

In the case of `Oc1ccc(CN2CCCCC2)c2cccnc12` [20-SMD58-18], the IC50 amounted to 5 ± 1.6 µM in the test with HEY [2] (Homo sapiens); 8.6 ± 1.4 µM with SkBr-3 (Homo sapiens, SK-BR-3, 72 h); 6.8 ± 1.3 µM with HCT116 p53+/+ [3] (setting [11]); 6.5 ± 0.8 µM with HCT116 p53−/− [4]; 8.9 µM in the test with MDA-MB-435 [5].

As for `Cc1cccc(NCc2ccc(O)c3ncccc23)n1` [24-SMD58-23], the IC50 in the test with HEY [2] (Homo sapiens) was 2.3 ± 0.3 µM; in the test on SkBr-3 (Homo sapiens, SK-BR-3, 72 h) it was 3.6 ± 0.5 µM; in the test with HCT116 p53+/+ [3] (setting [11]), 2.8 ± 0.1 µM; in the test on HCT116 p53−/− [4] it was 1.6 ± 0.3 µM; in the test on MDA-MB-435 [5] it was 2.3 µM.

As for `Oc1ccc(CN2CCN(Cc3ccccc3)CC2)c2cccnc12` [15-SMD58-8], the IC50 in the test with HEY [2] (Homo sapiens) worked out at 1.8 ± 0.7 µM; with SkBr-3 (Homo sapiens, SK-BR-3, 72 h), 1.7 ± 0.7 µM; with HCT116 p53+/+ [3] (setting [11]), 1.7 ± 0.7 µM; in the test with HCT116 p53−/− [4] it was 2.5 ± 1.6 µM; in the test with MDA-MB-435 [5], 5.4 ± 0.7 µM.
